pEC50: −log10 of the molar value.
Key:
[1] = Cerebral and plasma pharmacokinetic profile after oral administration in mice; assay type: in vivo, male C57Bl6 mouse; settings: oral administration 10 mg/kg in mice; for Kp: male, C57Bl6, mouse, brain/plasma, read-out: Ratio AUCbrain/AUCplasma; for AUCbrain: AUC0-t, up to 8 h
Protocol: The protocol used was as follows:
Male C57Bl6 mice (25-30 g) from Janvier, Le Genest-St-Isle, France, were used for this study (12 mice per dose).
The animals were fed with standard rodent feed (Purina Mills, St. Louis, Mo.), and were placed in cages and subjected to 12 h/12 h light/dark cycles, the room temperature being maintained at 22±2° C. and the humidity level at 55±10%.
The mice were not fasted before administration. Water was supplied ad libitum throughout the study.
The test compound was administered orally at 10 mg/kg.
For oral administration at 10 mg/kg, the animals were fed by gavage with 10 mL/kg of a suspension of the test compound, prepared in 1% methylcellulose 400 cp.
The animals were sacrificed under anaesthesia at times 15 min, 30 min, 1 h, 3 h, 6 h and 8 h after gavage.
At each time, and on each sacrificed animal, the blood was collected and the brain was removed.
1 mL of blood collected in 1.5 mL tubes containing 20 μL of evaporated anticoagulant (solution of sodium heparinate at 1000 UI/mL) was centrifuged at 4500 g for 3 min to give approximately 400 μL of plasma. The plasma was divided into 2 aliquots of 200 μL, which were stored at −20° C. until extraction by protein precipitation, followed by analysis by liquid chromatography coupled with tandem mass spectrometry (LC-MS/MS) for the quantification of the test compound.
Immediately after their removal, the brains were plunged into liquid nitrogen and then stored at −20° C. for analysis. The brains were subsequently ground in the presence of aqueous/organic solvent mixture to give a homogenate. These homogenates were subsequently centrifuged and the test compound was extracted from the resulting supernatant, by liquid-liquid extraction, and then quantified by LC-MS/MS.
The pharmacokinetic parameters were determined on the basis of a non-compartmental approach in Excel. The area under the curve (AUC0-t) was determined by the linear trapezoidal method.

[2] = molecular target: T1, hNurr1_RXRαFL (NURR-1/RXRα heterodimer) (Homo sapiens, UniProt P19793); experiment: Transactivation assay, NURR-1-Gal4/RXRα luciferase reporter in Cos-7 cells; assay type: cell-based; settings: for Emax: COS-7, level of induction relative to XCT0135908 at 2×10^-5 M = 100%, read-out: Eff hNurr1_RXRαFL (efficacy relative to the reference XCT0135908); for pEC50: Cos-7 cells, Gal4 luciferase reporter
T1 construct: hNurr1_RXRαFL
Protocol: (§1) To start with, using an in vitro assay, the capacity of the compounds according to the invention to behave as an activator of the heterodimers formed by the NURR-1 nuclear receptor and the RXR nuclear receptors was measured.
(§2) A transactivation assay was used as a primary screening test. Cos-7 cells were co-transfected with a plasmid expressing a chimera of the human receptor NURR-1-Gal4, a plasmid expressing the RXR human receptor (RXRα or RXRγ receptor) and a reporter plasmid 5Gal4pGL3-TK-Luc. The transfections were carried out using a chemical agent (Jet PEI).
(§3) The transfected cells were distributed in 384-well plates and left to stand for 24 hours.
(§4) After 24 hours, the culture medium was changed. The test products were added (final concentration between 10^−4 and 3.10^−10 M) in the culture medium. After incubation overnight, the expression of luciferase was measured after addition of “SteadyGlo” in accordance with the manufacturer's (Promega) instructions.
(§5) 4-[[6-Methyl-2-phenyl-5-(2-propenyl)-4-pyrimidinyl]amino]benzoic acid (called XCT0135908) at 2×10^−5 M (RXR agonist) was used as reference.
(§6) The levels of induction were calculated in relation to the basal activity of each heterodimer. The results were expressed as a percentage of the level of induction relative to the level of induction obtained with the reference (the level of induction of the reference is arbitrarily equal to 100%).

[3] = system: mice treated with 1-methyl-4-phenyl-1,2,3,6-tetrahydropyridine (MPTP); experiment: Neuroprotection in MPTP-treated mice, striatal dopamine; assay type: in vivo, male C57BL6/J mice; settings: oral, twice daily for 11 days; MPTP 20 or 25 mg/kg i.p. for 5 days; FIGS. 1 to 3
Protocol: The compound of Example 2 was tested on a model of mice treated with 1-methyl-4-phenyl-1,2,3,6-tetrahydropyridine (MPTP), in order to confirm its potential activity. MPTP is a neurotoxin which gives rise to permanent symptoms of Parkinson's disease by destroying certains neurons in the substantia nigra of the brain. The protocol used was as follows.
Male C57BL6/J mice, aged 10-12 weeks at the beginning of the studies, were divided into groups of 8 animals. The compound was administered orally and twice daily for 11 days in total. Administration was commenced 3 days before treatment with the MPTP toxin at 20 or 25 mg/kg. MPTP was administered once daily by intraperitoneal injection for 5 days. The administration of the test compound was continued for 3 days after the treatment with MPTP. One group of mice received the vehicle alone (0.5% methylcellulose solution). The animals were euthanized after the final gavage, and the striatum was removed. The dopamine was extracted from the striatum, and the amount of dopamine (DA), expressed in ng per g of striatum (mean±SEM), was measured by high-performance liquid chromatography (HPLC) with electrochemical detection.
The results obtained were reported in attached FIGS. 1 to 3.

[4] = molecular target: T2, hNurr1_RXRγFL (NURR-1/RXRγ heterodimer) (Homo sapiens, UniProt P48443); experiment: Transactivation assay, NURR-1-Gal4/RXRγ luciferase reporter in Cos-7 cells; assay type: cell-based; settings: for Emax: COS-7, level of induction relative to XCT0135908 at 2×10^-5 M = 100%, read-out: Eff hNurr1_RXRγFL (efficacy relative to the reference XCT0135908); for pEC50: Cos-7 cells, Gal4 luciferase reporter
T2 construct: EC50 hNurr1_RXRγFL; other: Cos-7 cells, Gal4 luciferase reporter; other: level of induction relative to XCT0135908 at; hNurr1_RXRγFL
Protocol: as §1, §2, §3, §4, §5, §6

T1 sequence (P43354 328-598): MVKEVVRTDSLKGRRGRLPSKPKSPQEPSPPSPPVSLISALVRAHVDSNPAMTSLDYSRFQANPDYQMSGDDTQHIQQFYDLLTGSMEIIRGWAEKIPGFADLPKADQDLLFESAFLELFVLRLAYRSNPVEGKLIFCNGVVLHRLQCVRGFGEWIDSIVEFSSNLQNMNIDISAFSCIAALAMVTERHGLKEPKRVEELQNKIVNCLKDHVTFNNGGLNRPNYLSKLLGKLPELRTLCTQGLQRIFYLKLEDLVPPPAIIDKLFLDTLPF
T1 sequence (P19793 whole entry, the tested form may be a part): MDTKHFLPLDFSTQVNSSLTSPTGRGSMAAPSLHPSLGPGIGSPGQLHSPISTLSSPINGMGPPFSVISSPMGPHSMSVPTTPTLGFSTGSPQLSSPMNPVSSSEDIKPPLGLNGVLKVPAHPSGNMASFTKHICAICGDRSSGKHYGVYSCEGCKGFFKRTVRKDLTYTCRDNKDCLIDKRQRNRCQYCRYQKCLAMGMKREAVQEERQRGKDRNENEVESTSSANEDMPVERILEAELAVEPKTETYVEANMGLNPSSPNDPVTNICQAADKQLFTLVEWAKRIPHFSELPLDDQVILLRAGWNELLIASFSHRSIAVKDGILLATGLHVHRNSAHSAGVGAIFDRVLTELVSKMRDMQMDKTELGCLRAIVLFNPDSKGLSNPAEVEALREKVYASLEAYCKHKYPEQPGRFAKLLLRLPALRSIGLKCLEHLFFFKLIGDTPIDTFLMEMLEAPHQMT
T2 sequence (P48443 whole entry, the tested form may be a part): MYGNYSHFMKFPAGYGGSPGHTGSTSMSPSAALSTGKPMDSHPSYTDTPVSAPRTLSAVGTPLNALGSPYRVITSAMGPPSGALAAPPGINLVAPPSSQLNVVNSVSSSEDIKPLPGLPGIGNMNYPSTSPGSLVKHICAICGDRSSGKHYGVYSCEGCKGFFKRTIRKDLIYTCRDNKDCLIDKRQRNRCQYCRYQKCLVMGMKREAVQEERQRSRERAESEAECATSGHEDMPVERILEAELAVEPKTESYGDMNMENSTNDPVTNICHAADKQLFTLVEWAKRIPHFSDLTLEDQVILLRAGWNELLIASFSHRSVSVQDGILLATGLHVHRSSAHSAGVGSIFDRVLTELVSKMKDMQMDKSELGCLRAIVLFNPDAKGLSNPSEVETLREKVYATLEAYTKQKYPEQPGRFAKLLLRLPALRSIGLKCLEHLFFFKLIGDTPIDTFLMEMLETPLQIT
T2 sequence (P43354 328-598 partner): as the sequence (P43354 328-598) above

| Kp [1] | AUCbrain [1] | Emax [2] | pEC50 [2] | Emax [4] | pEC50 [4] | Structure (SMILES) | Effect on MPTP-induced reduction of dopamine level in the striatum [3] |
| --- | --- | --- | --- | --- | --- | --- | --- |
| 0.8 | 1689 | 104% | 7.26 | 88% | 7.11 | CC(C)(C)c1cccc(S(=O)(=O)n2c(CCCCC(=O)O)cc3cc(C(F)(F)F)ccc32)c1 [Example 10, 1-[[3-(1,1-Dimethylethyl)phenyl]sulphonyl]-5-(trifluoromethyl)-1H-indole-2-pentanoic acid] | reduce, in a dose-dependent way, the action of MPTP |
| 0.67 | 3318 | 86% | 7.14 | 79% | 6.95 | CC(C)c1cccc(S(=O)(=O)n2c(CCCC(=O)O)cc3cc(C(F)(F)F)ccc32)c1 [Example 2, 1-[[3-(1-Methylethyl)phenyl]sulphonyl]-5-(trifluoromethyl)-1H-indole-2-butanoic acid] | reduce, in a dose-dependent way, the action of MPTP |
| 0.87 | 2371 | 100% | 7.59 | 70% | 7.70 | CC(C)(C)c1cccc(S(=O)(=O)n2c(CCCC(=O)O)cc3cc(C(F)(F)F)ccc32)c1 [Example 8, 1-[[3-(1,1-Dimethylethyl)phenyl]sulphonyl]-5-(trifluoromethyl)-1H-indole-2-butanoic acid] | reduce, in a dose-dependent way, the action of MPTP |
